From patent US20130338130A1 (priority 2009, published 2013)
Where “and” joins values, the source holds several entries; their conditions need not be identical. Identical values can stand only once. Like-named read-outs stand apart in the source and are kept apart here.

Columns and labels:
[1] = test system: ATCC strain 43300 Staphylococcus aureus; test: MRSA survival in MSM and 6 μg/ml oxacillin or methicillin, 24, 48, 120 hours (Example 4)
Procedure: The growth periods tested were 24 hours, 48 hours and 5 days.
USP<51> Antimicrobial Effectiveness protocol was used as the template experimental paradigm. […] All concentrations were plated out to the 10^−7 dilutions to ascertain cfu/ml.
Material was calculated on a 10 ml volume. Sterile oxacillin or methicillin was added to each experimental condition daily at 300 μl from a 30 mg/10 ml concentration giving it an initial final concentration of 6 μg/ml.
All tubes were inoculated with a dilution of MRSA giving a final level of colony forming units of 2.13×10^6/ml (Log=6.3). The tubes were incubated at 25° C. and mixed periodically. Plating was done at 24 hours, 48 hours and 5 days. Each condition was plated by diluting 1 ml of growth material into 9 ml of MLB diluent broth. This mixture was serial diluted down to 10^−7, and 1 ml placed in a sterile petri dish at each dilution point. 20 mls of TSA was added to each dilution, swirled and allowed to solidify. All dilutions were placed in a 35° C. incubator for 24 hours. Bacterial colonies on each plate were counted and colony counts changed into log format. A positive and negative control was ascertained.

[2] = test system: ATCC strain 43300 Staphylococcus aureus; settings: for survival (cfu/ml): 12 μg/ml methicillin (re-added every 24 hours) + MSM (% in label), triplicate platings, inoculum 1.49×10^5/ml; for recovery after enrichment in Mueller-Hinton broth: detection limit 1 cfu/ml
Procedure: Additional antibiotic was added every 24 hours. The growth periods tested were 24 (FIG. 5), 48, 72, 96 and 120 hours.
USP<51> Antimicrobial Effectiveness protocol was used as the template experimental paradigm. […] All concentrations were plated out to the 10^−7 dilutions to ascertain cfu/ml. […] Additional antibiotic was added at the initial concentration every 24 hours.
ATCC strain 43300 Staphylococcus aureus was streaked out for isolations. An isolated colony was chosen, streaked again and incubated. Isolate was chosen and then diluted to a McFarland standard of one. The estimated value was then taken to inoculate tubes containing growth media and 12, 30 or 60 μg/ml methicillin with approximately 10^5 cfu/ml. These tubes were incubated and plated for counting cfu.
Material was calculated on a 10 ml volume. Sterile methicillin was added to each experimental condition to a final concentration of 12, 30 or 60 μg/ml antibiotic. Lactose Broth positive controls both with and without the 12 μg/ml, 30 μg/ml, 60 μg/ml antibiotic were inoculated with MRSA. […] Tubes were set up in singlet, but plated in triplicate, as described below.
All tubes were then inoculated with a dilution of the selected ATCC strain 43300 Staphylococcus aureus clone giving a final level of colony forming units of 1.49×10^5/ml (log=5.17). The tubes were incubated at 25° C. and mixed periodically. Antibiotic was re-inoculated every 24 hours at the initial concentration to maintain pressure on the organism. Plating was done at 24, 48, 72, and 120 hours. Each condition was plated by diluting 1 ml of growth material into 9 ml of MLB diluent broth. […] This mixture was serial diluted down to 10^−7 with 1 ml placed in triplicate in a sterile petri dish at each dilution point. 20 mls of TSA was added to each dilution, swirled and allowed to solidify. All dilutions were placed in a 35° C. incubator for 24 to 72 hours. Bacterial colonies on each plate were counted and the average taken then changed into log format. […] Graphs were recorded as log of 5.2 for TNTC to show comparison among the other data points.
The tubes were spun down at 5000 rpm for 10 minutes. The supernatant was then decanted into 90 mls of Mueller-Hinton broth with 6 μg/ml methicillin. This is for enrichment and the recovery of any MRSA cells that may be present wether healthy or stressed. The pellet had 10 mls Mueller-Hinton broth with 6 μg/ml methicillin added to it to recover any cells that may be present. Both vessels were incubated at 35° C. for 48 hours and plated each 24 hours. Each vessel was plated at 10 dilutions to obtain a 1 cfu detection limit. Since all vessels were at a 1/10 dilution in the enrichment solution plating each vessel in this manner gave us a detection limit of 1 cfu/ml. […] This time point for graphing purposes will be reported as 0 logs.

[3] = 6 μg/ml methicillin + MSM (initial % in label), 48 hours, listed as 5% MSM
[4] = 6 μg/ml methicillin + MSM (initial % in label), 48 hours, listed as 16% MSM
[5] = 6 μg/ml oxacillin + MSM (initial % in label), 48 hours, listed as 8% MSM
[6] = 6 μg/ml oxacillin + MSM (initial % in label), 48 hours, listed as 16% MSM

CS(C)(=O)=O [MSM, Methylsulfonylmethane]
survival (Log cfu/ml) ([1]; 6 μg/ml methicillin + MSM (initial % in label), 48 Hours, listed as 8% MSM): 3.60 Log cfu/ml
survival (Log cfu/ml) ([1]; 6 μg/ml methicillin + MSM (initial % in label), 48 Hours, listed as 10% MSM): 3.70 Log cfu/ml
survival (Log cfu/ml) ([1]; 6 μg/ml methicillin + MSM (initial % in label), 48 Hours, listed as 12% MSM): 3.70 Log cfu/ml
survival (Log cfu/ml) ([1]; 6 μg/ml methicillin + MSM (initial % in label), 48 Hours, listed as 13% MSM): 3.90 Log cfu/ml
survival (Log cfu/ml) ([1]; 6 μg/ml methicillin + MSM (initial % in label), 48 Hours, listed as 14% MSM): 3.98 Log cfu/ml
survival (Log cfu/ml) ([1]; 6 μg/ml methicillin + MSM (initial % in label), 48 Hours, listed as 15% MSM): 4.00 Log cfu/ml
survival (Log cfu/ml) ([1]; 6 μg/ml methicillin + MSM (initial % in label), 24 hours, 3.5% MSM and antibiotic added daily, inoculum Log=6.3): 4.30 Log cfu/ml
survival (Log cfu/ml) ([1]; 6 μg/ml methicillin + MSM (initial % in label), 24 hours, 3.5% MSM and antibiotic added daily, inoculum Log=6.3, listed as 8% MSM): 4.50 Log cfu/ml
survival (Log cfu/ml) ([1]; 6 μg/ml methicillin + MSM (initial % in label), 24 hours, 3.5% MSM and antibiotic added daily, inoculum Log=6.3, listed as 10% MSM): 4.40 Log cfu/ml
survival (Log cfu/ml) ([1]; 6 μg/ml methicillin + MSM (initial % in label), 24 hours, 3.5% MSM and antibiotic added daily, inoculum Log=6.3, listed as 12% MSM): 4.60 Log cfu/ml
survival (Log cfu/ml) ([1]; 6 μg/ml methicillin + MSM (initial % in label), 24 hours, 3.5% MSM and antibiotic added daily, inoculum Log=6.3, listed as 13% MSM): 4.90 Log cfu/ml
survival (Log cfu/ml) ([1]; 6 μg/ml methicillin + MSM (initial % in label), 24 hours, 3.5% MSM and antibiotic added daily, inoculum Log=6.3, listed as 14% MSM): 4.90 Log cfu/ml
survival (Log cfu/ml) ([1]; 6 μg/ml methicillin + MSM (initial % in label), 24 hours, 3.5% MSM and antibiotic added daily, inoculum Log=6.3, listed as 15% MSM): 5.00 Log cfu/ml
survival (Log cfu/ml) ([1]; 6 μg/ml methicillin + MSM (initial % in label), 24 hours, 3.5% MSM and antibiotic added daily, inoculum Log=6.3, listed as 16% MSM): 5.00 Log cfu/ml
average log reduction in cfu/ml [1, 3]: 2.7 log
survival (Log cfu/ml) [1, 3]: 3.60 Log cfu/ml
average log reduction in cfu/ml [1, 4]: 2.1 log
survival (Log cfu/ml) [1, 4]: 4.17 Log cfu/ml
survival (Log cfu/ml) ([1]; 6 μg/ml methicillin + MSM (initial % in label), 120 hours, listed as 5% MSM): TNTC
survival (Log cfu/ml) ([1]; 6 μg/ml methicillin + MSM (initial % in label), 120 hours, listed as 8% MSM): TNTC
survival (Log cfu/ml) ([1]; 6 μg/ml methicillin + MSM (initial % in label), 120 hours, listed as 10% MSM): TNTC
survival (Log cfu/ml) ([1]; 6 μg/ml methicillin + MSM (initial % in label), 120 hours, listed as 12% MSM): 4.20 Log cfu/ml
survival (Log cfu/ml) ([1]; 6 μg/ml methicillin + MSM (initial % in label), 120 hours, listed as 13% MSM): 2.80 Log cfu/ml
survival (Log cfu/ml) ([1]; 6 μg/ml methicillin + MSM (initial % in label), 120 hours, listed as 14% MSM): 2.90 Log cfu/ml
survival (Log cfu/ml) ([1]; 6 μg/ml methicillin + MSM (initial % in label), 120 hours, listed as 15% MSM): 2.80 Log cfu/ml
survival (Log cfu/ml) ([1]; 6 μg/ml methicillin + MSM (initial % in label), 120 hours, listed as 16% MSM): 2.80 Log cfu/ml
Log reduction in cfu/ml ([1]; 6 μg/ml methicillin + initial 13-16% MSM, 120 hours): ~3.5 log
survival (Log cfu/ml) ([1]; 6 μg/ml oxacillin + MSM (initial % in label), 48 Hours, listed as 5% MSM): 5.20 Log cfu/ml
survival (Log cfu/ml) ([1]; 6 μg/ml oxacillin + MSM (initial % in label), 48 Hours, listed as 10% MSM): 4.20 Log cfu/ml
survival (Log cfu/ml) ([1]; 6 μg/ml oxacillin + MSM (initial % in label), 48 Hours, listed as 12% MSM): 4.30 Log cfu/ml
survival (Log cfu/ml) ([1]; 6 μg/ml oxacillin + MSM (initial % in label), 48 Hours, listed as 13% MSM): 4.20 Log cfu/ml
survival (Log cfu/ml) ([1]; 6 μg/ml oxacillin + MSM (initial % in label), 48 Hours, listed as 14% MSM): 4.40 Log cfu/ml
survival (Log cfu/ml) ([1]; 6 μg/ml oxacillin + MSM (initial % in label), 48 Hours, listed as 15% MSM): 4.40 Log cfu/ml
survival (Log cfu/ml) ([1]; 6 μg/ml oxacillin + MSM (initial % in label), 24 hours, listed as 5% MSM): 4.90 Log cfu/ml
survival (Log cfu/ml) ([1]; 6 μg/ml oxacillin + MSM (initial % in label), 24 hours, listed as 8% MSM): 5.00 Log cfu/ml
survival (Log cfu/ml) ([1]; 6 μg/ml oxacillin + MSM (initial % in label), 24 hours, listed as 10% MSM): 5.00 Log cfu/ml
survival (Log cfu/ml) ([1]; 6 μg/ml oxacillin + MSM (initial % in label), 24 hours, listed as 12% MSM): 5.20 Log cfu/ml
survival (Log cfu/ml) ([1]; 6 μg/ml oxacillin + MSM (initial % in label), 24 hours, listed as 13% MSM): 5.00 Log cfu/ml
survival (Log cfu/ml) ([1]; 6 μg/ml oxacillin + MSM (initial % in label), 24 hours, listed as 14% MSM): 5.20 Log cfu/ml
survival (Log cfu/ml) ([1]; 6 μg/ml oxacillin + MSM (initial % in label), 24 hours, listed as 15% MSM): 5.23 Log cfu/ml
survival (Log cfu/ml) ([1]; 6 μg/ml oxacillin + MSM (initial % in label), 24 hours, listed as 16% MSM): 5.25 Log cfu/ml
average log reduction in cfu/ml [1, 5]: 2.7 log
survival (Log cfu/ml) [1, 5]: 3.60 Log cfu/ml
average log reduction in cfu/ml [1, 6]: 2.1 log
survival (Log cfu/ml) [1, 6]: 4.17 Log cfu/ml
survival (Log cfu/ml) ([1]; 6 μg/ml oxacillin + MSM (initial % in label), 120 hours, listed as 5% MSM): TNTC
survival (Log cfu/ml) ([1]; 6 μg/ml oxacillin + MSM (initial % in label), 120 hours, listed as 8% MSM): TNTC
survival (Log cfu/ml) ([1]; 6 μg/ml oxacillin + MSM (initial % in label), 120 hours, listed as 10% MSM): TNTC
survival (Log cfu/ml) ([1]; 6 μg/ml oxacillin + MSM (initial % in label), 120 hours, listed as 12% MSM): TNTC
survival (Log cfu/ml) ([1]; 6 μg/ml oxacillin + MSM (initial % in label), 120 hours, listed as 13% MSM): TNTC
survival (Log cfu/ml) ([1]; 6 μg/ml oxacillin + MSM (initial % in label), 120 hours, listed as 14% MSM): 3.00 Log cfu/ml
survival (Log cfu/ml) ([1]; 6 μg/ml oxacillin + MSM (initial % in label), 120 hours, listed as 15% MSM): 3.00 Log cfu/ml
survival (Log cfu/ml) ([1]; 6 μg/ml oxacillin + MSM (initial % in label), 120 hours, listed as 16% MSM): 3.00 Log cfu/ml
Log reduction in cfu/ml ([1]; 6 μg/ml oxacillin + initial 14-16% MSM, 120 hours): ~3.3 log
survival (cfu/ml) ([2]; 24 hours, listed as 5% MSM): 7.8 × 10^2 cfu/ml and 8.0 × 10^2 cfu/ml and 8.2 × 10^2 cfu/ml
survival (cfu/ml) ([2]; 24 hours, listed as 6% MSM): 4.0 × 10^2 cfu/ml and 4.4 × 10^2 cfu/ml and 4.5 × 10^2 cfu/ml
survival (cfu/ml) ([2]; 24 hours, listed as 7% MSM): 4.4 × 10^2 cfu/ml and 5.0 × 10^2 cfu/ml
survival (cfu/ml) ([2]; 24 hours, listed as 8% MSM): 9.6 × 10^2 cfu/ml and 9.5 × 10^2 cfu/ml and 9.3 × 10^2 cfu/ml
survival (cfu/ml) ([2]; 24 hours, listed as 9% MSM): 9.0 × 10^2 cfu/ml and 9.4 × 10^2 cfu/ml and 9.2 × 10^2 cfu/ml
survival (cfu/ml) ([2]; 24 hours, listed as 10% MSM): 1.4 × 10^3 cfu/ml
survival (cfu/ml) ([2]; 24 hours, listed as 11% MSM): 2.2 × 10^3 cfu/ml and 2.3 × 10^3 cfu/ml
survival (cfu/ml) ([2]; 24 hours, listed as 12% MSM): 2.9 × 10^3 cfu/ml and 3.0 × 10^3 cfu/ml and 2.8 × 10^3 cfu/ml
survival (cfu/ml) ([2]; 24 hours, listed as 13% MSM): 3.3 × 10^3 cfu/ml and 3.5 × 10^3 cfu/ml and 3.4 × 10^3 cfu/ml
survival (cfu/ml) ([2]; 24 hours, listed as 14% MSM): 8.8 × 10^3 cfu/ml and 8.5 × 10^3 cfu/ml and 8.2 × 10^3 cfu/ml
survival (cfu/ml) ([2]; 24 hours, listed as 15% MSM): 6.4 × 10^3 cfu/ml and 6.6 × 10^3 cfu/ml and 6.5 × 10^3 cfu/ml
survival (cfu/ml) ([2]; 24 hours, listed as 16% MSM): 1.01 × 10^3 cfu/ml and 1.03 × 10^3 cfu/ml and 1.04 × 10^3 cfu/ml
log reduction ([2]; 12 μg/ml methicillin, 24 hours): 2.2 log
log reduction in colony count ([2]; 12 μg/ml methicillin, 48 hours): 4.1 log
recovery after enrichment in Mueller-Hinton broth ([2]; 12 μg/ml methicillin, 72 hours): true total kill
colony count ([2]; 12 μg/ml methicillin, 96 hours): TNTC
recovery after enrichment in Mueller-Hinton broth ([2]; 12 μg/ml methicillin, 96 hours): true total kill
colony count ([2]; 12 μg/ml methicillin, 120 hours): TNTC
